In the NIST ThermoML archive (doi:10.1016/j.fluid.2017.12.026):
Values joined by “and” are separate entries in the source; they are usually repeats but may differ in a detail not shown here. Equal entries are not always repeated.

Conditions: Coaxial cylinder method

CCCCC [pentane]
Conditions	thermal conductivity
331.2 K, 49500 kPa, Liquid	0.1283 W/m/K
331.2 K, 50000 kPa, Liquid	0.1278 W/m/K
386 K, 5061 kPa, Liquid	0.09007 W/m/K
386 K, 10175 kPa, Liquid	0.09446 W/m/K
386 K, 18875 kPa, Liquid	0.0996 W/m/K
386 K, 20275 kPa, Liquid	0.1023 W/m/K
386 K, 30275 kPa, Liquid	0.1082 W/m/K
386 K, 34475 kPa, Liquid	0.1107 W/m/K
386 K, 40275 kPa, Liquid	0.1122 W/m/K
386 K, 49975 kPa, Liquid	0.1184 W/m/K
386 K, 53475 kPa, Liquid	0.1203 W/m/K
387.83 K, 75 kPa, Gas	0.02437 W/m/K
387.83 K, 100 kPa, Gas	0.02484 W/m/K
399.6 K, 2900 kPa, Liquid	0.08457 W/m/K
399.6 K, 3000 kPa, Liquid	0.08493 W/m/K
399.6 K, 4000 kPa, Liquid	0.08522 W/m/K
399.6 K, 4500 kPa, Liquid	0.08602 W/m/K
399.6 K, 5000 kPa, Liquid	0.0869 W/m/K
399.6 K, 6000 kPa, Liquid	0.088 W/m/K
399.6 K, 7000 kPa, Liquid	0.08901 W/m/K
399.6 K, 7500 kPa, Liquid	0.08952 W/m/K
399.6 K, 8000 kPa, Liquid	0.0899 W/m/K
399.6 K, 9500 kPa, Liquid	0.09127 W/m/K
399.6 K, 10000 kPa, Liquid	0.09171 W/m/K
399.6 K, 11000 kPa, Liquid	0.09237 W/m/K
399.6 K, 12000 kPa, Liquid	0.09323 W/m/K
399.6 K, 13000 kPa, Liquid	0.09372 W/m/K
399.6 K, 14000 kPa, Liquid	0.09464 W/m/K
399.6 K, 15000 kPa, Liquid	0.09518 W/m/K
399.6 K, 16000 kPa, Liquid	0.09601 W/m/K
399.6 K, 17000 kPa, Liquid	0.09671 W/m/K
399.6 K, 18000 kPa, Liquid	0.09742 W/m/K
399.6 K, 19000 kPa, Liquid	0.09836 W/m/K
399.6 K, 20000 kPa, Liquid	0.0989 W/m/K
399.6 K, 21000 kPa, Liquid	0.09955 W/m/K
399.6 K, 22000 kPa, Liquid	0.1001 W/m/K
399.6 K, 23500 kPa, Liquid	0.1011 W/m/K
399.6 K, 25000 kPa, Liquid	0.1022 W/m/K
399.6 K, 26000 kPa, Liquid	0.1026 W/m/K
399.6 K, 27000 kPa, Liquid	0.1031 W/m/K
399.6 K, 28000 kPa, Liquid	0.1037 W/m/K
399.6 K, 29000 kPa, Liquid	0.1047 W/m/K
399.6 K, 30000 kPa, Liquid	0.1051 W/m/K
399.6 K, 31000 kPa, Liquid	0.1056 W/m/K
399.6 K, 33000 kPa, Liquid	0.1066 W/m/K
399.6 K, 34000 kPa, Liquid	0.1071 W/m/K
399.6 K, 35000 kPa, Liquid	0.1076 W/m/K
399.6 K, 35301 kPa, Liquid	0.1079 W/m/K
421.85 K, 100 kPa, Gas	0.02874 W/m/K and 0.02895 W/m/K
421.85 K, 1640 kPa, Liquid	0.07566 W/m/K
421.85 K, 1650 kPa, Liquid	0.07566 W/m/K
421.85 K, 1660 kPa, Liquid	0.07566 W/m/K
421.85 K, 1680 kPa, Liquid	0.07566 W/m/K
421.85 K, 1700 kPa, Liquid	0.07566 W/m/K
421.85 K, 1710 kPa, Liquid	0.07566 W/m/K
421.85 K, 1720 kPa, Liquid	0.07566 W/m/K
421.85 K, 1730 kPa, Liquid	0.07596 W/m/K
421.85 K, 1750 kPa, Liquid	0.07566 W/m/K
421.85 K, 1764 kPa, Liquid	0.07568 W/m/K
421.85 K, 1772 kPa, Liquid	0.07584 W/m/K
421.85 K, 1910 kPa, Liquid	0.07624 W/m/K
421.85 K, 1946 kPa, Liquid	0.0762 W/m/K
421.85 K, 1954 kPa, Liquid	0.07621 W/m/K
422.2 K, 2518 kPa, Liquid	0.07714 W/m/K
422.2 K, 5041 kPa, Liquid	0.08091 W/m/K
422.2 K, 10475 kPa, Liquid	0.08676 W/m/K
422.2 K, 18675 kPa, Liquid	0.09347 W/m/K
422.2 K, 18775 kPa, Liquid	0.09348 W/m/K
422.2 K, 20475 kPa, Liquid	0.09413 W/m/K
422.2 K, 30575 kPa, Liquid	0.1002 W/m/K
422.2 K, 30675 kPa, Liquid	0.1007 W/m/K
422.2 K, 40275 kPa, Liquid	0.1061 W/m/K
422.2 K, 48075 kPa, Liquid	0.1104 W/m/K
422.2 K, 52975 kPa, Liquid	0.1123 W/m/K
425.73 K, 100 kPa, Gas	0.02926 W/m/K
425.74 K, 1560 kPa, Gas	0.0319 W/m/K
425.8 K, 100 kPa, Gas	0.0294 W/m/K
425.82 K, 100 kPa, Gas	0.02926 W/m/K
426.24 K, 100 kPa, Gas	0.02935 W/m/K
426.25 K, 100 kPa, Gas	0.02935 W/m/K
426.25 K, 1210 kPa, Gas	0.0316 W/m/K
426.25 K, 1280 kPa, Gas	0.03151 W/m/K
